Test results from ChEMBL document CHEMBL5584358, “Fungal Coculture of Herpotrichia sp. and Trametes versicolor Induces Production of Diverse Metabolites with Anti-Parkinson's Neuroprotective Activity” (J Nat Prod, 2024).
Activity calls are given as the source filed them. The rule behind the calls is not given here.

Legend:
PC-12 [1] = experiment: Cytotoxicity against rat PC12 cells assessed as effect on cell viability at 20 uM measured after 24 hrs by CCK-8 assay; type: toxicity, cell-based; conditions: pc-12, 24 h
PC-12 [2] = experiment: Neuroprotective activity against MPP+-induced rat PC12 cell death assessed as increase in cell viability preincubated for 1 hr followed by MPP+ addition and measured after 24 hrs by CCK-8 assay; type: functional, cell-based; conditions: dose 1-20 µM, time 25.0 hrs
PC-12 [3] = experiment: Neuroprotective activity against MPP+-induced rat PC12 cell death assessed as cell viability at 20 uM preincubated for 1 hr followed by MPP+ addition and measured after 24 hrs by CCK-8 assay (reference value: 57%); type: functional; conditions: time 25 hrs, read-out: Activity
PC-12 [4] = experiment: Neuroprotective activity against MPP+-induced rat PC12 cell death assessed as increase in cell viability at […] preincubated for 1 hr followed by MPP+ addition and measured after 24 hrs by CCK-8 assay; type: functional, cell-based; conditions: time 25.0 hrs

| Structure (SMILES) | Activity (PC-12 [1]) | Activity (PC-12 [2]) | viability at 20 µM (PC-12 [3]) [%] | Activity (PC-12 [4]) |
| --- | --- | --- | --- | --- |
| CC/C=C/c1c(OC)cc(=O)oc1CO | Non-Toxic | – | – | – |
| CC(=O)[C@H]1CC[C@@]2(O)C3=CC(=O)[C@@H]4C[C@H](O)CC[C@]4(C)[C@H]3C[C@@H](O)[C@]12C | Non-Toxic | Dose-Dependent Effect | 72 | – |
| C=C1CC[C@@H](C(C)(C)O)[C@@H]2C[C@H](C)[C@@H](O)C[C@@H]12 | Non-Toxic | Dose-Dependent Effect | 72 | – |
| CC1=C[C@@](C)(O)[C@H](C)O[C@H]1/C(C)=C/C=C/C=C/C=C/[C@@]1(C)C2OC(=O)C1(C)C(=O)C2C (some centres undefined) | Non-Toxic | – | – | – |
| Cc1ccc([C@@H](C)[C@@H](C[C@@H](O)C(C)(C)O)O[C@@H]2OC[C@@H](O)[C@H](O)[C@H]2O)cc1 | Non-Toxic | – | – | – |
| CC(CO)[C@@H]1CC[C@@](C)(O)[C@@H]2CCC(CO)=C[C@H]21 (some centres undefined) | Non-Toxic | Dose-Dependent Effect | 69 | Active |
| COc1cc(=O)oc(C)c1/C=C/CCOC(C)=O | Non-Toxic | – | – | – |
| C=CC1(C)CC/C=C(/C)CCC(C(C)(C)O)O1 (centres undefined) [NEROPLOMACROL] | Non-Toxic | Dose-Dependent Effect | 69 | – |
| CCC[C@H](O)c1c(OC)cc(=O)oc1C | Non-Toxic | – | – | – |
| C=CC(C)(O)C(O)CC(O)C(C)(O)CCC=C(C)C (centres undefined) | Non-Toxic | – | – | – |
| CCC[C@H](O[C@@H]1OC[C@@H](O)[C@H](O)[C@H]1O)c1c(OC)cc(=O)oc1C | Non-Toxic | – | – | – |
| CC(C)=CC[C@H](O)[C@@](C)(O)[C@@H](O)C/C=C(/C)[C@H](O)CO | Non-Toxic | – | – | – |
| CC1=C[C@](C)(O)[C@H](C)O[C@H]1/C(C)=C/C=C/C=C/C=C/[C@@]1(C)C2OC(=O)C1(C)C(=O)C2C (some centres undefined) | Non-Toxic | – | – | – |
| C=C1CC[C@H]2[C@](C)(CO)CC[C@@H](O)[C@]2(C)[C@H]1CO | Non-Toxic | – | – | – |
| CC(=O)[C@H]1CC[C@H]2C3=CC(=O)[C@H]4C[C@H](O)CC[C@]4(C)[C@H]3[C@H](O)C[C@]12C | Non-Toxic | Dose-Dependent Effect | 69 | – |
| CC(=O)[C@H]1CC[C@H]2C3=C[C@H](O)[C@H]4C[C@H](O)CC[C@]4(C)[C@H]3[C@H](O)C[C@]12C | Non-Toxic | Dose-Dependent Effect | 68 | – |
